Where two headings read alike, the source gives them in different places.

From patent US8796457B2, “Compound useful for the treatment of degenerative and inflammatory diseases” (Galapagos NV, priority 2009, dated 2014) come the findings set out here.

Assay [1] concerns the target Recombinant human JAK1 (catalytic domain) (Homo sapiens (Human), UniProt P23458). Nature of the assay: JAK1 inhibition assay. The format is biochemical. As to conditions: average ± standard error of the mean; 7 μM ATP. How it is done:
After 60 min at room temperature, reactions were stopped by adding 20 μL/well of detection mixture (1× detection buffer (Perkin Elmer, catalog number CR97-100C), 0.5 nM Europium-anti-phosphotyrosine (PT66) (Perkin Elmer, catalog number AD0068), 10 mM EDTA). […] Kinase activity was calculated by subtracting relative fluorescence units (RFU) obtained in the presence of a positive control inhibitor (10 μM staurosporine) from RFU obtained in the presence of vehicle.
Dose dilution series were prepared for the compounds enabling the testing of dose-response effects in the JAK1 assay and the calculation of the IC50 for the compound. […] The data are expressed as the average IC50 from the assays±standard error of the mean.

Another assay has as its target JAK1 (Homo sapiens (Human), UniProt P23458). Nature of the assay: JAK1 Ki determination assay (Ulight-JAK-1 peptide). In kind it is biochemical. As to conditions: Lineweaver-Burk; Ulight-JAK-1 (Tyr1023) peptide, alternative protocol.
In the next assay the target is JAK2 (Homo sapiens (Human), UniProt O60674). Description: JAK2 Ki determination assay (Ulight-JAK-1 peptide). In kind it is biochemical. Conditions: Lineweaver-Burk; Ulight-JAK-1 (Tyr1023) peptide, alternative protocol. How it is done:
Alternatively, for the determination of Ki, different amounts of inhibitor were mixed with the enzyme and the enzymatic reaction was followed as a function of ATP concentration. […] 0.0125 mU of JAK2 (Invitrogen, PV4210) was used in the assay. The substrate was 50 nM Ulight-JAK-1 (Tyr1023) Peptide (Perkin Elmer, TRF0121). The reaction was performed in 25 mM HEPES pH 7.0, 0.01% Triton X-100, 2 mM DTT, 7.5 mM MgCl2 with varying concentrations of ATP and compound. Phosphorylated substrate was measured using an Eu-labeled anti-phosphotyrosine antibody PT66 (Perkin Elmer, AD0068). Readout was performed on the envision (Perkin Elmer) with excitation at 320 nm and emission followed at 615 nm and 665 nm.

The target of assay [2] is Recombinant human TYK2 catalytic domain (Homo sapiens (Human), UniProt P29597). Nature of the assay: TYK2 inhibition assay. In kind it is biochemical. As to conditions: 0.1 μM ATP. The procedure: Recombinant human TYK2 catalytic domain (amino acids 871-1187; catalog number 08-147) was purchased from Carna biosciences. 5 ng of TYK2 was incubated with 12.5 μg polyGT substrate (Sigma catalog number P0275) in kinase reaction buffer (25 mM Hepes pH 7.5, 100 mM NaCl, 0.2 mM Na3VO4, 0.1% NP-40, 0.1 μM non-radioactive ATP, 0.125 μCi ^33P-gamma-ATP (GE Healthcare, catalog number AH9968) final concentrations) with or without 5 μL containing test compound or vehicle (DMSO, 1% final concentration), in a total volume of 25 μL, in a polypropylene 96-well plate (Greiner, V-bottom). After 90 min at 30° C., reactions were stopped by adding of 25 μL/well of 150 mM phosphoric acid. […] 40 μL/well of Microscint-20 was added, the top of the plates was sealed and readout was performed using the Topcount (Perkin Elmer). Kinase activity was calculated by subtracting counts per minute (cpm) obtained in the presence of a positive control inhibitor (10 μM staurosporine) from cpm obtained in the presence of vehicle. The ability of a test compound to inhibit this activity was determined as: Percentage inhibition=((cpm determined for sample with test compound present−cpm determined for sample with positive control inhibitor) divided by (cpm determined in the presence of vehicle−cpm determined for sample with positive control inhibitor))*100. […]
Chain of Recombinant human TYK2 catalytic domain (P29597 871-1187): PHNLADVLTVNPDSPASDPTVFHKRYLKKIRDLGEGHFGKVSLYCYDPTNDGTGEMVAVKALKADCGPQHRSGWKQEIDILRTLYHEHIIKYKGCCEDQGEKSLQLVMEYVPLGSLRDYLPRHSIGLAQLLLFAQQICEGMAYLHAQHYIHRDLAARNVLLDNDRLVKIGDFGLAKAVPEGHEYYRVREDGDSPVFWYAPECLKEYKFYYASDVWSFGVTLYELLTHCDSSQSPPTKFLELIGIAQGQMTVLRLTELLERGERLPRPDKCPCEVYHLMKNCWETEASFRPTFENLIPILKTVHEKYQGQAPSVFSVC

For assay [3], the system named is JAK2 dependent pathway (GM-CSF induced IL-8) in human whole blood. Description: Whole blood assay, GM-CSF stimulation, IL-8 ELISA. As to conditions: 6 blood donors, ± SEM, read-out: pIC50 for inhibition of GM-CSF induced increase of IL-8 (converted). The format is cell-based. How it is done:
For GM-CSF stimulation, increase in interleukin-8 (IL-8) levels in plasma was measured using an IL-8 ELISA assay. Granulocyte macrophage-colony stimulating factor (GM-CSF)—induced interleukin 8 (IL-8) expression is a JAK2-mediated event.
The increase in IL-8 levels in plasma was measured using an IL-8 ELISA assay.
10 μg GM-CSF was dissolved in 100 μL H2O to obtain a 100 μg/mL stock solution. The stock solution was stored at −20° C.
A 3-fold dilution series of the test compound was prepared in DMSO (highest concentration: 10 mM).
Human blood was collected in heparinized tubes. The blood was divided in aliquots of 245 μL. […] The GM-CSF stock solution was diluted 100-fold in RPMI medium to obtain a 1 μg/mL work solution. […] The samples were incubated at 37° C. for 2 h.
The samples were centrifuged for 15 min at 1,000 g, 4° C. 100 μL of the plasma was harvested and stored at −80° C. until further use.
The Human IL-8 Chemiluminescent Immunoassay kit from R&D Systems (Cat. n°: Q8000B) was used to determine IL-8 levels.
Wash buffer was prepared by diluting 10× wash buffer in H2O. Working glo reagent was prepared by adding 1 part Glo Reagent 1 to 2 parts Glo Reagent B 15 min to 4 h before use.
100 μL assay diluent RD1-86 was added to each well. After that, 50 μL of sample (plasma) was added. […] Luminescence was measured (0.5 s/well read time).

Chain of Recombinant human JAK1 (catalytic domain) (P23458 866-1154): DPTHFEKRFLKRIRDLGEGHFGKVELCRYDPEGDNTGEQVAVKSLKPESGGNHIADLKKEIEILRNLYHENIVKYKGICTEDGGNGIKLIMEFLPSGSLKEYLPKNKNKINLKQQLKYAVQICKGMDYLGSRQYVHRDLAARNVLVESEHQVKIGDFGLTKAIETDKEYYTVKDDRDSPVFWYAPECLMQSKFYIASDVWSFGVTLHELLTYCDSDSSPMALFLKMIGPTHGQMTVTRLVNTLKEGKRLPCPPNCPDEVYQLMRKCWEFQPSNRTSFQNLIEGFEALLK
Chain of JAK1 (P23458 866-1154): as above
Chain of JAK2 (O60674 849-1124): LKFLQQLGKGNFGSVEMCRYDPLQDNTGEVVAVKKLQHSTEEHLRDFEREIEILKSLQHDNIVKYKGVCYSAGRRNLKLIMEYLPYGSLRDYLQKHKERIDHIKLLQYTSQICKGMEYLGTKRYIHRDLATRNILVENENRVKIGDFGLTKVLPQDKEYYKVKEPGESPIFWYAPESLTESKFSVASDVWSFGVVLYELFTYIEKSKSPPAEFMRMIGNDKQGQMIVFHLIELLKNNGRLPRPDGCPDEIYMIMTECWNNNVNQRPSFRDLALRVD

Regarding `CC1(C)CN(C(=O)c2ccc(-c3cccc4nc(NC(=O)C5CC5)nn34)cc2)C1` [Compound 1, Cyclopropanecarboxylic acid{5-[4-(3,3-dimethyl-azetidine-1-carbonyl)-phenyl]-[1,2,4]triazolo[1,5-a]pyridin-2-yl}-amide], the IC50 in assay [1] was 0.0066 ± 0.0007 µM; in assay [2], 0.219 ± 0.037 µM; in assay [3] (additional data analysis protocol (R2 > 0.8, hill slope < 3)), 10.7 µM; in assay [3] (human whole blood) it was 13.5 µM. For the same compound, the Ki (as a rule, a dissociation constant, usually derived from enzyme kinetics or from competition with a known ligand) came to 0.0056 µM on JAK1 and 0.035 µM at JAK2.
